Data reported in patent US7235379B2, “Method and medium for the detection/identification of microorgranisms with esterase activity” (Bio Merieux, priority 2000, dated 2007).
Where a name gives a salt, the structure may show the parent alone.

Tests used:
[1] = system: Staphylococcus aureus 276; experiment: Ex.3 colony coloration, 5-bromo-4-chloro-3-indolyl nonanoate 250 mg/l, DMSO/Tween 20; type: cell-based
Experimental: (§1) The esterase substrate tested is 5-bromo-4-chloro-3-indolyl nonanoate. A 40 g/l stock solution of substrate is prepared in a mixture of 40% dimethyl sulfoxide and 60% Tween 20. A sufficient volume is added to a supercooled MacConkey medium (without neutral red) to give a substrate concentration of 250 mg/l.
(§2) Microorganisms originating from the Applicant's collection were inoculated onto this medium from a 0.5 McFarland suspension by isolation in three quadrants. The dishes were incubated at 37° C. for 48 hours. The colonies formed were examined visually after 24 and 48 hours of incubation. The coloration of these colonies and the intensity of this coloration were noted.
(§3) The intensity of coloration corresponds to an arbitrary scale defined as follows:

[2] = system: Listeria monocytogenes 023; experiment: as above; type: cell-based
Experimental: as §1, §2, §3
Further: key: 0: no activity; 0.1: trace of coloration; 0.5: very pale coloration; 1: distinct coloration of low intensity; 2: clear coloration of medium intensity; 3: intense coloration; 4: very intense coloration.

CCCCC(CC)CCC(CC(C)C)OS(=O)(=O)O (centres unmarked) [Tergitol 4, 7-ethyl-2-methyl-4-undecanoate hydrogensulfate or its sodium salt]
intensity of coloration ([1]; 0.001 ml/l, 24 h): 2 | intensity of coloration ([1]; 0.001 ml/l, 48 h): 2 | intensity of coloration ([1]; 0.01 ml/l, 24 h): 2 | intensity of coloration ([1]; 0.01 ml/l, 48 h): 3 | intensity of coloration ([1]; 0.1 ml/l, 24 h): 3 | intensity of coloration ([1]; 0.1 ml/l, 48 h): 3 | intensity of coloration ([1]; 1 ml/l (1st col), 24 h): 2 | intensity of coloration ([1]; 1 ml/l (1st col), 48 h): 3 | intensity of coloration ([1]; 1 ml/l (2nd col), 24 h): 2 | intensity of coloration ([1]; 1 ml/l (2nd col), 48 h): 3 | intensity of coloration ([2]; 0.001 ml/l, 24 h): 2 | intensity of coloration ([2]; 0.001 ml/l, 48 h): 2 | intensity of coloration ([2]; 0.01 ml/l, 24 h): 2.5 | intensity of coloration ([2]; 0.01 ml/l, 48 h): 3 | intensity of coloration ([2]; 0.1 ml/l, 24 h): 2 | intensity of coloration ([2]; 0.1 ml/l, 48 h): 3 | intensity of coloration ([2]; 1 ml/l (1st col), 24 h): 2 | intensity of coloration ([2]; 1 ml/l (1st col), 48 h): 3 | intensity of coloration ([2]; 1 ml/l (2nd col), 24 h): 2 | intensity of coloration ([2]; 1 ml/l (2nd col), 48 h): 3
